Data from patent EP4722228A1, “NEW COMPOUND TARGETING MUSK AND USE THEREOF” (The University of Tokyo, priority 2023, dated 2024).
pKd: −log10 of the molar value. Numbered stars: 1 amine (or outer) side, 2 acyl side, 3 side chain; on linkers, the order of the positions; unused ones are H or OH. Bridge positions count the residues as written; N and C are the ends. Square brackets hold non-standard residues; d marks the D form. Peptide text beside a SMILES is read from it. I, II: the chains in the order shown. X1 = O=C(CCN1C(=O)CC([*:1])C1=O)NCCOCCOCCOCCOCCOCCOCCOCCOCCOCCOCCOCCNC(=O)CCN1C(=O)CC([*:2])C1=O

Key:
[1] = system: C2C12 myotubes (AChR clusters); assay: Induction of AChR clusters in myotube cells by the MuSK7 homodimer, with or without AST-487; assay type: cell-based, mouse; settings: in the presence of AST-487
Description: (§1) The mouse myoblast-derived cell line C2C12 (CRL-1772) was purchased from the American Type Culture Collection and used. For subculture, Dulbecco's Modified Eagle Medium (DMEM, high glucose, GlutaMAX supplement, pyruvate; GIBCO) supplemented with 20% fetal bovine serum (FBS; GIBCO) was used. For passage, after the culture medium was removed by suction, adherent cells were washed with phosphate buffered saline (PBS(-)), and HBSS (GIBCO) containing no Mg^2+ and Ca^2+ and containing 0.25% trypsin and 1 mM ethylenediaminetetraacetic acid was added, and the mixture was reacted in a CO2 incubator (37°C, 5% CO2) for 5 minutes. […]
A differentiation medium supplemented with an appropriate amount of the homodimer of the cyclic peptide MuSK7 (MuSK7 PEG11 dimer) was prepared in advance in a 96-well plate (Nunclon Δ Surface, 167008, Nunc), and used at 100 µL/well at the time of the second medium change in the process of inducing differentiation into myotubes. […] After washing the cells several times with 1% BSA-PBS(-), 100 µL of PBS(-) was added to each well, and fluorescence observation was performed using a fluorescence imaging device. […] During fluorescence image observation, a 10× objective lens was used, and tiff images of an area equivalent to 1 mm^2 were obtained. […] The average number of AChR clusters counted from the three tiff images derived from the same well was calculated and drawn on a graph. […]

[2] = system: C2C12 myotubes (Agrin-induced AChR clusters); assay: Agrin-induced AChR clusters in myotubes with tyrosine kinase inhibitors; assay type: cell-based, mouse; settings: 10 pM recombinant rat agrin, inhibitor added simultaneously, 20 hours; low concentration range of 1 nM
Description: The mouse myoblast-derived cell line C2C12 (CRL-1772) was purchased from the American Type Culture Collection and used. For subculture, Dulbecco's Modified Eagle Medium (DMEM, high glucose, GlutaMAX supplement, pyruvate; GIBCO) supplemented with 20% fetal bovine serum (FBS; GIBCO) was used. For passage, after the culture medium was removed by suction, adherent cells were washed with phosphate buffered saline (PBS(-)), and HBSS (GIBCO) containing no Mg^2+ and Ca^2+ and containing 0.25% trypsin and 1 mM ethylenediaminetetraacetic acid was added, and the mixture was reacted in a CO2 incubator (37°C, 5% CO2) for 5 minutes. The detached cells were collected and then centrifuged at 1000 rpm at 4°C for 5 minutes (Sorvall X4R Pro, Thermo Fisher Scientific Inc.). After the supernatant was removed by suction, the cells were suspended in fresh culture medium, and 100 µL was seeded into a 96-well plate (BioCoat Collagen I 96-well Black/Clear plate, Corning Inc.) and cultured in a CO2 incubator (37°C, 5% CO2) until reaching confluence, typically within 72 hours. Subsequently, the culture medium was removed and the first medium change was performed with DMEM containing 2% horse serum (GIBCO) for induction of myotube cell differentiation.
A differentiation medium supplemented with an appropriate amount of the homodimer of the cyclic peptide MuSK7 (MuSK7 PEG11 dimer) was prepared in advance in a 96-well plate (Nunclon Δ Surface, 167008, Nunc), and used at 100 µL/well at the time of the second medium change in the process of inducing differentiation into myotubes. 20 hours after addition of the homodimer of the cyclic peptide MuSK7, the medium was removed, the cells were washed with PBS(-), and then fixed at room temperature for 15 minutes with PBS(-) containing 4% formaldehyde. After washing several times with 1% BSA-PBS(-), fluorescently labeled α-bungarotoxin (α-Btx, Alexa Fluor 488 conjugate; Invitrogen) was added to 1% BSA-PBS(-) at a final concentration of 100 nM, and after adding this to the wells, the mixture was allowed to stand at room temperature under a light-shielded condition for 30 minutes. After washing the cells several times with 1% BSA-PBS(-), 100 µL of PBS(-) was added to each well, and fluorescence observation was performed using a fluorescence imaging device. For observation of fluorescently labeled AChR clusters, an EVOS M7000 imaging system (Thermo Fisher Scientific Inc.) was used. During fluorescence image observation, a 10× objective lens was used, and tiff images of an area equivalent to 1 mm^2 were obtained. […] The average number of AChR clusters counted from the three tiff images derived from the same well was calculated and drawn on a graph.
MuSK inhibitor candidates were searched in the KinaseNET database (http://www.kinasenet.ca/) published as an open resource by Kinexus Bioinformatics Corporation (Canada), and three tyrosine kinase inhibitors (AST-487, Foretinib, and Sorafenib) were identified. Next, groups were prepared in which 10 pM recombinant rat agrin protein (550-AG, R&D Systems) derived from C2C12 myotubes was added alone, or in which each tyrosine kinase inhibitor (3 nM) was added simultaneously, and detection and observation of Agrin-induced AChR clusters were performed 20 hours after compound addition (five types, Crizotinib, Linifanib, AST-1306, Dovitinib, and BMS-754807, were used as non-MuSK inhibitory tyrosine kinase inhibitors).

[3] = system: mouse myoblast-derived cell line C2C12; assay: Induction of AChR clusters in myotube cells and quantitative analysis (fluorescent α-bungarotoxin); assay type: cell-based; settings: 20 hours after addition
Description: as §1
After washing several times with 1% BSA-PBS(-), fluorescently labeled α-bungarotoxin (α-Btx, Alexa Fluor 488 conjugate; Invitrogen) was added to 1% BSA-PBS(-) at a final concentration of 100 nM, and after adding this to the wells, the mixture was allowed to stand at room temperature under a light-shielded condition for 30 minutes. After washing the cells several times with 1% BSA-PBS(-), 100 µL of PBS(-) was added to each well, and fluorescence observation was performed using a fluorescence imaging device. […] During fluorescence image observation, a 10× objective lens was used, and tiff images of an area equivalent to 1 mm^2 were obtained. […] The average number of AChR clusters counted from the three tiff images derived from the same well was calculated and drawn on a graph.

human MuSK = biological target: T1, human MuSK (Homo sapiens, UniProt O15146); assay: SPR binding activity test to human MuSK (Biacore); settings: human MuSK, peptide homodimers
T1 construct: DNA corresponding to the extracellular portion (amino acids 1-493) was amplified by a PCR method; made in house; host or cells: Expi293F cells
T1 sequence (O15146 24-493): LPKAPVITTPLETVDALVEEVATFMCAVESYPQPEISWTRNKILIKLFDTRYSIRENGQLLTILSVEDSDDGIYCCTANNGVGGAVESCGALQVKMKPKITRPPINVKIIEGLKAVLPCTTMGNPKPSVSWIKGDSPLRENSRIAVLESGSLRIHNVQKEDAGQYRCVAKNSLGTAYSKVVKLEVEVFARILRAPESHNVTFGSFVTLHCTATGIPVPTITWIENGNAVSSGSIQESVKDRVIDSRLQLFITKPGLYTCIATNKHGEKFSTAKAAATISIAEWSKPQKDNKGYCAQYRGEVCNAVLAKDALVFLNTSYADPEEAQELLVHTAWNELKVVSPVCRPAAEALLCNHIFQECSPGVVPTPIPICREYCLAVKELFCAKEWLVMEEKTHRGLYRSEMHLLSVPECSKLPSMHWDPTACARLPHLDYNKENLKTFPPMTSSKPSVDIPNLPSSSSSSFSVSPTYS
Protocol: The human MuSK protein (extracellular portion) was prepared as a recombinant protein as follows. Using a Flexi clone (FXC31275, Promega Corporation) encoding Human MuSK isoform 1 precursor (NCBI Reference Sequence: NP_005583.1) as a template, DNA corresponding to the extracellular portion (amino acids 1-493) was amplified by a PCR method. XhoI and EcoRI restriction enzyme recognition sequences were added to both the 5' and 3' ends of the amplified DNA sequence, and these were used for insertion into the multiple cloning site of a pCAG-Neo hIgG1-Fc plasmid (Fujifilm Wako Pure Chemical Corporation). This plasmid (pCAG-Neo hMuSK-Fc) enables expression of a chimeric protein of the secretory human MuSK extracellular portion and human IgG1 Fc (hMuSK-Fc; molecular weight of approximately 200 kDa) in animal cells. In practice, ExpiFectamine 293 reagent (Invitrogen) was used to transfect the pCAG-Neo hMuSK-Fc plasmid into Expi293F cells (Invitrogen), and shaking culture was carried out (for 6 days) in an incubator containing 8% CO2. Next, the culture supernatant was collected, centrifuged, and sterilized by filtration through a 0.22 µm filter. The obtained culture supernatant was subjected to Protein G purification, and finally, a purified hMuSK-Fc sample with 99.96% purity (AKTA-FPLC analysis) was obtained.
The strength of binding between MuSK and the cyclic peptides was evaluated by quantitatively measuring the binding kinetics (binding affinity (dissociation constant) KD) of the cyclic peptides to MuSK immobilized on a sensor chip via an Fc tag, using surface plasmon resonance (SPR).
According to the standard immobilization protocol provided by the manufacturer, Fc-tagged human/mouse/rat MuSK was immobilized on a Protein G chip or a Protein A chip (Cytiva). A running buffer for the monomer/dimer peptides contained 0.010 M phosphate, 0.14 M NaCl, 0.0027 M KCl, 0.05% (v/v) Tween 20, and 0.1% (v/v) DMSO. A running buffer for the monomer/dimer U-bodies contained 0.010 M phosphate, 0.14 M NaCl, 0.0027 M KCl, and 0.05% (v/v) Tween 20. A series of concentrations of each monomer peptide, dimer peptide, monomer U-body, and dimer U-body was injected as analytes. A 1:1 binding fitting analysis was applied using Biacore evaluation software, and ka, kd, and KD values were determined.
Fc-tagged human MuSK was prepared according to the procedure described in Example 1(1). In addition, Fc-tagged mouse MuSK was used by expressing a nucleotide sequence encoding the Fc-tagged mouse MuSK extracellular domain (SEQ ID NO: 34). In addition, Fc-tagged rat MuSK was used as a chimeric protein of rat MuSK and an Fc protein, namely, Recombinant Rat MuSK Fc Chimera Protein (catalog number: 9847-MK-050, R&D Systems).
The affinity of the U-bodies and their complexes obtained as described above for MuSK of human, rat, and mouse was evaluated (binding activity test). The test was carried out according to the procedure described in Example 1(3). However, for the complexes of U-bodies, surface plasmon resonance (SPR) analysis was carried out using a Biacore 8K (Cytiva).

SMILES	AChR cluster formation by the homodimer of the cyclic peptide MuSK7 [1]	Agrin-induced AChR cluster formation [2]	number of AChR clusters ([3]; compound concentration exceeded 1 µM)	number of AChR clusters ([3]; concentration range from the pM order to 1 µM)	koff (human MuSK)	kon (human MuSK)	pKd (human MuSK; read-out: Kd)
CCN1CCN(Cc2ccc(NC(=O)Nc3ccc(Oc4cc(NC)ncn4)cc3)cc2C(F)(F)F)CC1 [AST-487]	no AChR clusters were detected	no AChR cluster formation was observed	–	–	–	–	–
CC(C)C[C@@H]1NC(=O)[C@H](CO)NC(=O)[C@H](C)NC(=O)[C@H](C(C)C)NC(=O)[C@H](C(C)C)NC(=O)[C@H](CC(N)=O)NC(=O)[C@H]([C@@H](C)O)NC(=O)[C@H](Cc2c[nH]cn2)NC(=O)[C@H](Cc2ccc(O)cc2)NC(=O)[C@H](CO)NC(=O)[C@@H]2CCCN2C(=O)[C@@H](Cc2ccc(O)cc2)NC(=O)CSC[C@@H](C(=O)N[C@@H](CSC2CC(=O)N(CCC(=O)NCCOCCOCCOCCOCCOCCOCCOCCOCCOCCOCCOCCNC(=O)CCN3C(=O)CC(SC[C@H](NC(=O)[C@@H]4CSCC(=O)N[C@H](Cc5ccc(O)cc5)C(=O)N5CCC[C@H]5C(=O)N[C@@H](CO)C(=O)N[C@@H](Cc5ccc(O)cc5)C(=O)N[C@@H](Cc5c[nH]cn5)C(=O)N[C@@H]([C@@H](C)O)C(=O)N[C@@H](CC(N)=O)C(=O)N[C@@H](C(C)C)C(=O)N[C@@H](C(C)C)C(=O)N[C@@H](C)C(=O)N[C@@H](CO)C(=O)N[C@@H](CC(C)C)C(=O)N[C@@H](CCCCN)C(=O)N[C@@H](CCCNC(=N)N)C(=O)N4)C(N)=O)C3=O)C2=O)C(N)=O)NC(=O)[C@H](CCCNC(=N)N)NC(=O)[C@H](CCCCN)NC1=O (stereo partly shown) [MuSK7 PEG11 dimer] (I: {CH2CO}-[dY]PSYHTNVVASLKRCC-NH2 / II: {CH2CO}-[dY]PSYHTNVVASLKRCC-NH2; linker I:16-II:16 via X1; thioether I:N-I:15, II:N-II:15)	–	–	conversely tended to decrease	increased in a dose-dependent manner	0.00051 s⁻¹	390000 M⁻¹ s⁻¹	8.89
